One compound from patent US8598115B2, “Cyclic compound and salt thereof” (Astellas Pharma Inc., priority 2008, dated 2013) can be followed below.

For this assay, the system named is Aspergillus fumigatus FP1305. Nature of the assay: Antifungal activity, broth microdilution method. The assay is classed as cell-based. As to the method:
Antifungal activities for test fungi shown in Table 15 was determined by a broth microdilution method (Hikaru Kume and Toshikazu Yamazaki, Clinical Microbiology, Vol. 21, No. 5, pp. 573-580, 1994).
(In general: Broth dilution looks for growth in wells or tubes with falling amounts of substance.)

Square brackets hold non-standard residues; d marks the D form. Peptide text beside a SMILES is read from it. Orn(N5-OH,N5-Ac) = CC(=O)N(O)CCC[C@H](N)C(=O)O

For the compound `CC(=O)N([O-])CCC[C@@H]1NC(=O)CNC(=O)CNC(=O)CNC(=O)[C@H](CCCN([O-])C(C)=O)NC(=O)[C@H](CCCN([O-])C(C)=O)NC1=O.[Fe+3]` [ferrichrome, Ferrichrome] (cyclo(GGG[Orn(N5-OH,N5-Ac)][Orn(N5-OH,N5-Ac)][Orn(N5-OH,N5-Ac)])), the “MEC (minimum effective concentration)” value is not below 50 µg/mL.
